The record followed here is patent US10196403B2, “Compounds and compositions and uses thereof” (Sunovion Pharmaceuticals Inc., priority 2016, dated 2019).

For this experiment, the system named is mice. The experiment can be described thus: Neuropharmacological Assay (SmartCube). In kind it is in vivo. The following applies: for AD: ADHD (SmartCube probability) / AG: analgesic (SmartCube probability) / AX: anxiolytic (SmartCube probability) / CE: cognitive enhancer (SmartCube probability) / DP: anti-depressant (SmartCube probability) / MS: mood stabilizer (SmartCube probability) / PS: anti-psychotic (SmartCube probability) / SD: sedative hypnotic (SmartCube probability) / UN: uncharacterized CNS activity (SmartCube probability): mice, i.p. 15 min before test, most efficacious dose(s) of 3 doses. A digest of the protocol:
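Behavior of treated mice captured by digital video and matched algorithmically against reference drug classes, yielding a class probability at the most efficacious of 3 i.p. doses (15 min pretreatment, NMP/PEG/propylene glycol vehicle). Potency given as MED, the mpk dose reaching ≥50% total activity across usually 0.3–30 mpk.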

Where [1] appears, read: MED = dose having 50% or more total activity in SmartCube.

As for `CNC[C@H]1OCCc2ccc(Cl)cc21` [Example 64, (S)-1-(7-chloroisochroman-1-yl)-N-methylmethanamine], the “AD: ADHD (SmartCube probability)” value is reported as “+ (LOQ≤ + <5%)”, the “AG: analgesic (SmartCube probability)” value is recorded as “++ (5%≤ ++ <25%)”, the “AX: anxiolytic (SmartCube probability)” value is recorded as “+++ (25%≤ +++ <50%)” and the “CE: cognitive enhancer (SmartCube probability)” value (shortened to “CE: cognitive enhancer”) was “++ (5%≤ ++ <25%)”. The “DP: anti-depressant (SmartCube probability)” value (from here on “DP: anti-depressant”) is given as “+ (LOQ≤ + <5%)”, the “MS: mood stabilizer (SmartCube probability)” value (from here on “MS: mood stabilizer”) is on record as “+ (LOQ≤ + <5%)”, the “PS: anti-psychotic (SmartCube probability)” value (from here on “PS: anti-psychotic”) is “++ (5%≤ ++ <25%)” and the “SD: sedative hypnotic (SmartCube probability)” value (“SD: sedative hypnotic” for short) is “++ (5%≤ ++ <25%)”. Further, the “UN: uncharacterized CNS activity (SmartCube probability)” value (“UN: uncharacterized CNS activity” below) is listed as “++++ (50%≤ ++++)”. In addition, under setting [1], the “POTENCY (minimal effective dose, MED)” value is on record as “A-B”.
As to `CNC[C@@H]1OCCc2ccc(Cl)cc21` [Example 65, (R)-1-(7-chloroisochroman-1-yl)-N-methylmethanamine], the “AD: ADHD (SmartCube probability)” value is listed as “+ (LOQ≤ + <5%)”, the “AG: analgesic (SmartCube probability)” value was “++ (5%≤ ++ <25%)”, the “AX: anxiolytic (SmartCube probability)” value is given as “++ (5%≤ ++ <25%)” and the “CE: cognitive enhancer” value was “+ (LOQ≤ + <5%)”. Further, the “DP: anti-depressant” value was “++ (5%≤ ++ <25%)”, the “MS: mood stabilizer” value is on record as “+ (LOQ≤ + <5%)”, the “PS: anti-psychotic” value was “++ (5%≤ ++ <25%)” and the “SD: sedative hypnotic” value is reported as “++ (5%≤ ++ <25%)”. Also, the “UN: uncharacterized CNS activity” value is given as “++++ (50%≤ ++++)”. Also, under setting [1], the “POTENCY (minimal effective dose, MED)” value is given as “A-B”.
Consider `NC[C@H]1OCCc2c(Cl)cccc21` [Example 66, (S)-(5-chloroisochroman-1-yl)methanamine], for which the “AD: ADHD (SmartCube probability)” value is recorded as “+ (LOQ≤ + <5%)”, the “AG: analgesic (SmartCube probability)” value is “+ (LOQ≤ + <5%)”, the “AX: anxiolytic (SmartCube probability)” value was “++ (5%≤ ++ <25%)” and the “CE: cognitive enhancer” value is “+ (LOQ≤ + <5%)”. Further, the “DP: anti-depressant” value was “++++ (50%≤ ++++)”, the “MS: mood stabilizer” value is “+ (LOQ≤ + <5%)”, the “PS: anti-psychotic” value is reported as “+ (LOQ≤ + <5%)” and the “SD: sedative hypnotic” value is reported as “+ (LOQ≤ + <5%)”. The “UN: uncharacterized CNS activity” value is “+ (LOQ≤ + <5%)”. Further, the “POTENCY (minimal effective dose, MED)” value under setting [1] is reported as “A-B”.
On to `NC[C@@H]1OCCc2c(Cl)cccc21` [Example 67, (R)-(5-chloroisochroman-1-yl)methanamine], for which the “AD: ADHD (SmartCube probability)” value is “+ (LOQ≤ + <5%)”, the “AG: analgesic (SmartCube probability)” value is “+ (LOQ≤ + <5%)”, the “AX: anxiolytic (SmartCube probability)” value was “++ (5%≤ ++ <25%)” and the “CE: cognitive enhancer” value is “+ (LOQ≤ + <5%)”. For the same compound, the “DP: anti-depressant” value is “++++ (50%≤ ++++)”, the “MS: mood stabilizer” value is “+ (LOQ≤ + <5%)”, the “PS: anti-psychotic” value is on record as “++ (5%≤ ++ <25%)” and the “SD: sedative hypnotic” value was “+ (LOQ≤ + <5%)”. Besides, the “UN: uncharacterized CNS activity” value is recorded as “+ (LOQ≤ + <5%)”. Under setting [1], the “POTENCY (minimal effective dose, MED)” value is given as “A-B”.
One may read the minimal effective dose as the smallest amount tested that counted as effective. Regarding `CNC[C@H]1OCc2cccc(F)c21` [Example 68, (S)-1-(7-fluoro-1,3-dihydroisobenzofuran-1-yl)-N-methylmethanamine], the “AD: ADHD (SmartCube probability)” value is reported as “+ (LOQ≤ + <5%)”, the “AG: analgesic (SmartCube probability)” value was “++ (5%≤ ++ <25%)”, the “AX: anxiolytic (SmartCube probability)” value is recorded as “++ (5%≤ ++ <25%)” and the “CE: cognitive enhancer” value was “++ (5%≤ ++ <25%)”. The “DP: anti-depressant” value is listed as “++ (5%≤ ++ <25%)”, the “MS: mood stabilizer” value was “+ (LOQ≤ + <5%)”, the “PS: anti-psychotic” value is given as “++ (5%≤ ++ <25%)” and the “SD: sedative hypnotic” value is listed as “+++ (25%≤ +++ <50%)”. For the same compound, the “UN: uncharacterized CNS activity” value is listed as “++ (5%≤ ++ <25%)”. Where the note is “Mus musculus, MED = dose having 50% or more total activity in SmartCube, read-out: POTENCY (minimal effective dose, MED)”, the minimal effective dose is 3 to 10 mg/kg.
